This is an account of results in patent US5643927A, “4-p-fluorobenzoyl-1-piperidinyl-propoxy-chromen-4-one derivatives, their preparation and their use in the treatment of psychosis and schizophrenia” (Ferrer Internacional, S.A., priority 1994, dated 1997).

Counter-ions that a name gives are not always drawn. Like-named read-outs stand apart in the source and are kept apart here.

In one data set the target is D2 receptors (Rattus norvegicus, UniProt P61169). As to the kind of experiment: biochemical. Format: binding. As to the method: (§1) Specific binding to σ, D2, D3, 5H2 and 5HT1a receptors has been tested as follows:
D2 receptors: A 2-nM solution of radioactive spiperone ([^3 H]spiperone), which acts as a specific ligand, was incubated with the membrane corresponding to 20 mg of rat striatum for 20 min at 35° C. buffered at pH 7.4 with Tris.HCl. The non-specific binding was then determined by addition of a micromolar concentration of unlabelled spiperone. […] After the incubation was completed, the sample was filtered through a glass fiber filter and then washed three times with Tris.HCl buffer. The amount of receptor-bound radioactivity was retained on the membrane and determined by liquid scintillation counting.
(§2) Values are expressed as IC50 in molar concentrations.

The target of another data set is T1, 5HT2 receptors (Rattus norvegicus, UniProt P14842).
T1 construct: membrane corresponding to 1 mg of rat cortex; from tissue; host or cells: rat cortex membranes
T1 sequence (P14842 whole entry): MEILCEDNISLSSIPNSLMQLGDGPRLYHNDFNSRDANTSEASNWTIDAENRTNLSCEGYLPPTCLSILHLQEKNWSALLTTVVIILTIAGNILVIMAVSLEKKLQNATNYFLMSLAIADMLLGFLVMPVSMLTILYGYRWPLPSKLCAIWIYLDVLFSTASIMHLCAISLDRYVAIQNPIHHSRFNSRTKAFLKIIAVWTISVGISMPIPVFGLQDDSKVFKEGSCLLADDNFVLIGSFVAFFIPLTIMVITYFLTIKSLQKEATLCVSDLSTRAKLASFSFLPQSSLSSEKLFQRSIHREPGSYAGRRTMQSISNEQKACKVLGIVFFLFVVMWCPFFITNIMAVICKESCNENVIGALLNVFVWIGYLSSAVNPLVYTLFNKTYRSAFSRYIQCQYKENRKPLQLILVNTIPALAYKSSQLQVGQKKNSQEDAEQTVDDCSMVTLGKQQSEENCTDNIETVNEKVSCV
As to the kind of experiment: 5HT2 receptor binding ([3H]ketanserin displacement). To be noted: for IC50: [3H]ketanserin 0.5 nM, rat cortex membrane, 30 min, 35° C., pH 7.4; for specificity over 5HT2 receptors versus D2 receptors (in words): D2 /5HT2 ratio. The protocol: as §1
5HT2 receptors: A 0.5 nM solution of radioactive ketanserin ([^3 H]ketanserin), which acts as a specific ligand, was incubated with the membrane corresponding to 1 mg of rat cortex for 30 min at 35° C. buffered at pH 7.4 with Tris.HCl. […] After the incubation was completed, the sample was filtered through a glass fiber filter and then washed three times with Tris.HCl buffer. The amount of receptor-bound radioactivity was retained on the membrane and determined by liquid scintillation counting.
as §2

In another data set the target is T2, D3 receptors (Homo sapiens, UniProt P35462).
T2 construct: purchased RBI; host or cells: mouse fibroblasts (CCL 1,3)
T2 sequence (P35462 whole entry): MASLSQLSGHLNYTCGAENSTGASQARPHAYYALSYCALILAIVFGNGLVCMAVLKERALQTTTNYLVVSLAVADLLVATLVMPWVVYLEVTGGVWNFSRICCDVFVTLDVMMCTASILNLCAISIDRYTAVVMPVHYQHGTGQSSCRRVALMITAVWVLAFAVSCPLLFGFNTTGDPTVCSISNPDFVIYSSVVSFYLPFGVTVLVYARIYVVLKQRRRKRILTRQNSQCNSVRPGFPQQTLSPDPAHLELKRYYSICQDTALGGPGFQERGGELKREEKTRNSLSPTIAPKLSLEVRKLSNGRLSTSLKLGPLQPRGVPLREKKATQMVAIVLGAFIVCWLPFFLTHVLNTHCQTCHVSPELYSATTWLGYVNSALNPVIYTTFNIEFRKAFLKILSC
As to the kind of experiment: biochemical. Format: binding. The protocol:
as §1
D3 receptors: A 0.1 nM solution of radioactive YM-0951 ([^3 H]YM-0951), which acts as a specific ligand, was incubated with the membrane provided by RBI obtained from mouse fibroblasts (CCL 1,3) for 15 min at 37° C., buffered at pH 7.4 with Tris.HCl. […] After the incubation was completed, the sample was filtered through a glass fiber filter and then washed three times with Tris.HCl buffer. The amount of receptor-bound radioactivity was retained on the membrane and determined by liquid scintillation counting.
as §2

The target in the next data set is T3, 5HT1a receptors (Rattus norvegicus, UniProt P19327).
T3 sequence (P19327 1-422): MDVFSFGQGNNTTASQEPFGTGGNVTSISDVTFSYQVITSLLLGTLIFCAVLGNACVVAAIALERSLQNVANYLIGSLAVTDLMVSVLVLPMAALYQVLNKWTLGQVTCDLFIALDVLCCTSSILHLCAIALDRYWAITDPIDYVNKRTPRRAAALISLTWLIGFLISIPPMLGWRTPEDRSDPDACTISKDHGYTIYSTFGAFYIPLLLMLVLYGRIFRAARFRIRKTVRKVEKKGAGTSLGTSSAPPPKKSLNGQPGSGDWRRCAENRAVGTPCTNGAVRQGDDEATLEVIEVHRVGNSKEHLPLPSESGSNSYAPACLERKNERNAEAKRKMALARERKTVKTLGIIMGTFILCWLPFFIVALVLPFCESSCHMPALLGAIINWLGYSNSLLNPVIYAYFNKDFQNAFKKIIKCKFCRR
As to the kind of experiment: biochemical. Format: binding. As to the method:
as §1
5HT1a receptors: A 1 nM solution of radioactive […], which acts as a specific ligand, was incubated with the membrane corresponding to 1 mg of rat cortex for 20 min at 35° C. buffered at pH 7.4 with Tris.HCl. Non-specific binding was then determined by addition of a 20 micromolar concentration of unlabelled buspirone. […] After the incubation was completed, the sample was filtered through a glass fiber filter and then washed three times with Tris.HCl buffer. The amount of receptor-bound radioactivity was retained on the membrane and determined by liquid scintillation counting.
as §2

The next data set has as its target σ receptors (Cavia porcellus, UniProt Q60492). As to the kind of experiment: biochemical. Type of data set: binding. As to the method:
as §1
σ receptors: A 2-nM solution of radioactive 3-PPP ((+) [^3 H]3-[3-hydroxyphenyl]-N-(1-propyl)-piperidine), which acts as a specific ligand, was incubated with the membrane corresponding to 40 mg of guinea-pig total brain for 90 min at 25° C. buffered at pH 8.5 with Tris.HCl. Thus, total binding of ligand to membranes was attained. Non-specific binding was then determined by adding a micromolar concentration of unlabelled 3-PPP. […] After the incubation was completed, the samples were filtered through a glass fiber filter and then washed three times with Tris.HCl buffer. The amount of receptor-bound radioactivity was retained on the membrane and determined by liquid scintillation counting.
as §2

The subject of a further data set is catalepsy. Description: catalepsy in rats after oral administration (extrapyramidal effects). Type of data set: in vivo. To be noted: rats, oral.
Experiment in data set [1]: as above
Format: in vivo. The settings on record: rat, in vivo, po.

Data set [2] in a line: animal pharmacological tests (overall statement). The settings on record: in vivo.
The test system of data set [3] is apomorphine-induced climbing behaviour. As to the kind of experiment: Test (C): Inhibition of apomorphine-induced climbing behaviour. Format: in vivo, Male Swiss mice. To be noted: Mus musculus, 1 h; oral, mice; apomorphine 1 mg/kg s.c. after 60 min; climbing assessed after further 60 min. As to the method: One week prior to experiment, animals were kept in our facilities at a temperature of 20°-22° C. and 12/12 h light-dark cycle, and had free access to food and water. Two hours prior to experiment, the animals were placed in individual cages without access to food.
Two additional assessments were performed at 10-min intervals.
The walls of the box were made of translucent methacrylate except one of the lateral surfaces (7.5 cm wide) which was a 3-mm wire mesh. […] If an animal keeps several positions within the 2-min observation, the seconds elapsed in each position will be recorded. Finally, mean scoring was calculated.

Where [4] appears, read: [3H]spiperone 2 nM, rat striatum membrane, 20 min, 35° C., pH 7.4, read-out: IC50 (M) D2.
The mark [5] stands for this setting: [3H]YM-0951 0.1 nM, membrane from mouse fibroblasts (CCL 1,3), 15 min, 37° C., pH 7.4, read-out: IC50 (M) D3.
Setting [6] is: [3H]5-OH-DPAT 1 nM, rat cortex membrane, 20 min, 35° C., pH 7.4, read-out: IC50 (M) 5HT1A.
Where [7] appears, read: [3H]3-PPP 2 nM, guinea-pig total brain membrane, 90 min, 25° C., pH 8.5, read-out: IC50 (M) σ.

Sequence of σ receptors (Q60492 whole entry): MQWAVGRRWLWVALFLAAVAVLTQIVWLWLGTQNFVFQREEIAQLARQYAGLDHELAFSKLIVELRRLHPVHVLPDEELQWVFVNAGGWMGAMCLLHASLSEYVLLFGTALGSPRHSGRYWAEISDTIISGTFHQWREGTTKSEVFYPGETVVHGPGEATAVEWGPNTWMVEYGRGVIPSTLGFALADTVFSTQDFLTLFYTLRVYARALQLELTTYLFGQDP
Sequence of D2 receptors (P61169 whole entry): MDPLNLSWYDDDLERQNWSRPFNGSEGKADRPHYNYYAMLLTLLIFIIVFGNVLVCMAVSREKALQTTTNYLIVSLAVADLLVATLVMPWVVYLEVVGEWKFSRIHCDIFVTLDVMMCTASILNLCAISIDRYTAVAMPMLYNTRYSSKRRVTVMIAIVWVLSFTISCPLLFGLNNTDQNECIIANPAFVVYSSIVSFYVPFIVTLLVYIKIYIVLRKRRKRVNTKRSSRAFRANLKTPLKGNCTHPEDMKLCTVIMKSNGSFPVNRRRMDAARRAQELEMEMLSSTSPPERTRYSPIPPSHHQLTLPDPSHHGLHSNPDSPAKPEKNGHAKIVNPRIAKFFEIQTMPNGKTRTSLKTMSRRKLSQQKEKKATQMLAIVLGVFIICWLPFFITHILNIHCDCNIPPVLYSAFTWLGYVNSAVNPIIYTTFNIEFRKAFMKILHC

As to `OC(CCCN1CCN(c2ncc(F)cn2)CC1)c1ccc(F)cc1` (centres unmarked) [BMY-14802, reference compound], the values for the IC50 on D2 receptors (setting [4]) and on 5HT2 receptors were 1.59e-05 M and 1150 nM, respectively.

Consider `Cl.O=C(c1ccc(F)cc1)C1CCN(CCCOc2ccc3c(=O)ccoc3c2)CC1` [Example 1, 7-[3-(4-p-fluorobenzoyl-1-piperidinyl)propoxy]chromen-4-one hydrochloride], for which the IC50 on D3 receptors (setting [5]) is 6.88e-08 M; at 5HT1a receptors (setting [6]) it was 1.56e-06 M; on D2 receptors (setting [4]), 4.36e-07 M; at σ receptors (setting [7]), 1.46e-08 M; on 5HT2 receptors, 17.1 nM. The “activity on D3 receptors (in words)” value on D3 receptors (compared with 7-OH-DPAT) is reported as “active on D3 receptors in the same order as 7-OH-DPAT”. Moreover, the “specificity over 5HT2 receptors versus D2 receptors (in words)” value at 5HT2 receptors (hydrochloride) was “the most specific over 5HT2 receptors versus D2 receptors”; at 5HT2 receptors (listed as Ex. 1, hydrochloride), “surpasses BMY-14802 and risperidone in D2 /5HT2 ratio”.

As for `Cc1cc(=O)c2ccc(OCCCN3CCC(C(=O)c4ccc(F)cc4)CC3)cc2o1` [Example 2, 7-[3-(4-p-fluorobenzoyl-1-piperidinyl)propoxy]-2-methyl-chromen-4-one hydrochloride], the IC50 on D3 receptors (setting [5]) was 8.55e-07 M; on 5HT1a receptors (setting [6]), 1.57e-06 M; on D2 receptors (setting [4]) it was 3.74e-07 M; on σ receptors (setting [7]), 7.99e-07 M; on 5HT2 receptors, 56.6 nM.

As for `Cc1coc2cc(OCCCN3CCC(C(=O)c4ccc(F)cc4)CC3)ccc2c1=O` [Example 3, 7-[3-(4-p-fluorobenzoyl-1-piperidinyl)propoxy]-3-methyl-chromen-4-one hydrochloride], the IC50 was 1.94e-07 M at D3 receptors; 7.64e-07 M at 5HT1a receptors; 1.29e-07 M on D2 receptors; 2.43e-07 M on σ receptors; 82 nM at 5HT2 receptors.

`Cl.O=C(c1ccc(F)cc1)C1CCN(CCCOc2ccc3c(=O)c(CO)coc3c2)CC1` [Example 4, 3-Hydroxymethyl-7-[3-(4-p-fluorobenzoyl-1-piperidinyl)propoxy]-chromen-4-one hydrochloride]: in the data set on catalepsy, the “extrapyramidal effects (in words)” value is recorded as “did not show very important extrapyramidal effects”. In [1], this compound came in with a TD50 of 15 mg/kg. The “activity in animal pharmacological tests (in words)” value in data set [2] is on record as “very active in animal pharmacological tests”. The same compound had an ED50 in [3] of 3.2 mg/kg. The compound further came in with an IC50 on 5HT2 receptors of 47.4 nM. Further, the “D2 /5HT2” value at 5HT2 receptors (ratio of IC50 D2 to IC50 5HT2) is recorded as 4.01.
